Laboratory results taken from patent US20080076824A1, “Compounds That Inhibit Replication Of Human Immunodeficiency Virus” (priority 2004, published 2008).
Several values for one entry are separate records, joined by “and”; a condition that tells them apart may be missing. Equal entries are not always repeated. Entries after “also recorded” stand apart in the source; their conditions may differ. Where two headings read alike, the source gives them in different places. Each block holds one compound with its values, some of them ahead of it. Non-standard residues stand in square brackets, D forms with d. Residues, ends and D or L forms follow the SMILES beside them. Sar = CNCC(=O)O

Assays:
[1] = tested on: HIV-1 (IIIB); experiment: microbe, parasite or virus in culture; details: Human immunodeficiency virus 1, IIIB, CCRF-CEM
[2] = tested on: HIV-1 (IIIB)
[3] = tested on: HIV-1 (IIIB); experiment: microbe, parasite or virus in culture
Description: (§1) MT-4, C8166 or CEM cells (4 to 5×10^5 cells per ml) were suspended in fresh culture medium (RPMI-1640 medium supplemented with 10% fetal bovine serum (FBS) (BioWittaker Europe, Verviers, Belgium), 2 mM L-glutamine and […] NaHCO3). Subsequently, the cells were infected with HIV-1 (IIIB) or HIV-2(ROD) at ˜100 CCID50 (1 CCID50 being the dose infective for 50% of the cell cultures) per ml of cell suspension. Then, 100 μl of the infected cell suspension were transferred to 96-well microplate wells, mixed with 100 μl of the appropriate (5-fold) dilutions of the test compounds and further incubated at 37° C. After 4 to 5 days, giant cell formation was recorded microscopically in the CEM and C8166 cell cultures. The MT-4 cell cultures were treated with trypan blue and the number of viable cells was determined.

[4] = tested on: HIV-2(ROD); experiment: microbe, parasite or virus in culture
Description: as §1

[5] = tested on: HIV (SF2 virus); experiment: HIV infectivity assay, SF2-infected H9 cells, visible syncytia; assay type: cell-based; details: for Visible syncytia: H9/SF2, day 11
[6] = tested on: HIV (SF2 virus); experiment: HIV infectivity assay, SF2-infected H9 cells, reverse transcriptase (RT) quantification in supernatant; assay type: cell-based; details: for inhibition of HIV replication, reverse transcriptase (RT) activity: cultures containing boiled fetal calf serum
[7] = tested on: HIV (SF2 virus); experiment: HIV infectivity assay, SF2-infected H9 cells, p24 quantification; assay type: cell-based; details: for OD1: replicates (1)-(3)
Description: The remaining wells were filled with sterile distilled water. The cell culture plates were incubated at 37° C. and 5% CO2. After four days the medium was changed, after eight days the medium was changed and the cells were collected. After 11 days, the infection was stopped, the cells were viewed in a 10× magnification microscope and 650 μl of each cell supernatant was collected and frozen at −80° C. for further analysis. After five more days, the supernatants were thawed and used in a conventional reverse transcriptase (RT) activity assay (e.g., Roche AMPLICOR MONITOR™) or a p24 quantification assay (e.g., Abbott Laboratories, Chicago). (See U.S. Pat. No. 6,258,932 and U.S. patent application Ser. No. 10/235,158, both of which are hereby expressly incorporated by reference in its entireties).
[…] The cells in the samples were counted and then centrifuged. The cells were then resuspended in 10 ml of RPMI 1640 (containing fetal calf serum) and either […] Metabolite X or 100 μM GPG-NH2. Uninfected control and untreated control samples were also included in the experiment. The samples were then incubated overnight at 37° C. at 5% CO2.
Then, the amount of p24 in the samples was analysed using a conventional p24 detection assay (see U.S. Pat. No. 6,258,932).
Three replicate samples (“replicates”) of uninfected samples and untreated samples were also included in the experiment as controls. The inhibition of HIV replication was monitored by quantifying the levels of p24 using a conventional detection kit.
Three replicates of unninfected samples and untreated samples were also included in the experiment as controls.

[8] = tested on: HIV-2 (ROD); experiment: microbe, parasite or virus in culture; assay type: cell-based; details: 2 (ROD)
Description: Human T-lymphocytic CEM cells (4.5×10^5 cells per ml) were suspended in fresh cell culture medium and infected with HIV-1 (IIIB and NL4.3) or HIV-2 (ROD or EHO) at 100 CCID50 (1 CCID50 being the virus dose infective for 50% of the cell cultures) per ml of cell suspension. Then, 100 μl of the infected cell suspension were transferred to microplate wells, mixed with 100 μl of appropriate (freshly prepared) dilutions of the test compounds (i.e., at final concentrations of […]), and were further incubated at 37° C. After 4 to 5 days, giant cell formation was recorded microscopically in the CEM cell cultures. […] (See Table 1).
as §1

[9] = tested on: HIV-1 (NL4.3); details: read-out: EC50 HIV-1 NL3.4; CEM cell cultures, syncytia formation
Description: (§2) Human T-lymphocytic CEM cells (4.5×10^5 cells per ml) were suspended in fresh cell culture medium and infected with HIV-1 (IIIB and NL4.3) or HIV-2 (ROD or EHO) at 100 CCID50 (1 CCID50 being the virus dose infective for 50% of the cell cultures) per ml of cell suspension. Then, 100 μl of the infected cell suspension were transferred to microplate wells, mixed with 100 μl of appropriate (freshly prepared) dilutions of the test compounds (i.e., at final concentrations of […]), and were further incubated at 37° C. After 4 to 5 days, giant cell formation was recorded microscopically in the CEM cell cultures.

[10] = tested on: HIV-2 (EHO)
Description: as §2

[11] = in vitro; details: human
[12] = read-out: EC50 against HIV-1(IIIB), CEM cell cultures, Table 2
[13] = read-out: EC50 (CEM) HIV-1 (IIIB), Table 19
[14] = read-out: EC50 HIV-1 IIIB, CEM cell cultures, syncytia formation, Table 1

- EC50 [1, 12]: > 1000 µM
Structure (SMILES): NCC(N)C(=O)O (racemic) [DL-2,3-diaminopropionic acid]

- EC50 [1, 12]: > 500 µM
Structure (SMILES): CC(C)CC(N)C(N)=O (racemic) [DL-Leucinamide]

- EC50 [1, 12]: > 1000 µM
Structure (SMILES): NC(=O)C(N)Cc1ccccc1 (racemic) [DL-Phenylalaninamide]

- EC50 [1, 12]: > 500 µM
Structure (SMILES): NC(=O)C(N)Cc1c[nH]c2ccccc12 (racemic) [DL-Tryptophanamide]

- EC50 [1, 12]: > 1000 µM
Structure (SMILES): NCC(O)CN [1,3-diamino-2-hydroxypropane]

- EC50 [1, 12]: > 1000 µM
Structure (SMILES): NCC(=O)CN [1,3-diaminoaceton]

- EC50 [1, 12]: > 500 µM
Structure (SMILES): NC(=O)C[C@@H](N)C(=O)O [D-Asparagine]

- EC50 [1, 12]: > 1000 µM
Structure (SMILES): CC(C)C[C@@H](N)C(=O)O [D-Leucine]

- EC50 [1, 12]: > 1000 µM
Structure (SMILES): NCCN [Ethylene diamine]

Structure (SMILES): CC(C)(C)OC(=O)NC(=O)C(N)OCc1ccccc1 (stereo not drawn) [Example 20, α-benzyloxy-N-tert-butoxycarbonylglycinamide]
- melting point: 115 to 120 °C

- melting point: 110 to 112 °C
Structure (SMILES): COC(N)C(=O)NC(=O)OCc1ccccc1 (stereo not drawn) [Example 22, α-methoxy-N-benzyloxycarbonylglycinamide]

- melting point: 66 to 68 °C
Structure (SMILES): CCOC(=O)C(NC(=O)OCc1ccccc1)OCC (stereo not drawn) [Example 23, α-ethoxy-N-benzyloxycarbonylglycine ethyl ester]

- melting point: 119 to 121 °C
Structure (SMILES): CCOC(N)C(=O)NC(=O)OCc1ccccc1 (stereo not drawn) [Example 25, α-ethoxy-N-benzyloxycarbonylglycinamide]

- melting point: 111 to 113 °C
Structure (SMILES): CC(C)OC(N)C(=O)NC(=O)OCc1ccccc1 (stereo not drawn) [Example 26, α-isopropoxy-N-benzyloxycarbonylglycinamide]

- EC50 [2, 12]: > 500 µM
Structure (SMILES): NCC(N)=S [Glycin-thioamide, reference compound]

- EC50 [1, 12]: > 500 µM
Structure (SMILES): CNC(=O)CN [Glycine methylamide]

- EC50 [1, 12]: > 500 µM
Structure (SMILES): NCC(=O)O [Glycine]

- EC50 ([3]; read-out: EC50 (MT-4) HIV-1 (IIIB), Table 19): > 500 µM
- EC50 ([4]; read-out: EC50 (MT-4) HIV-2 (ROD), Table 19): > 500 µM
- EC50 [2, 13]: > 500 µM
Structure (SMILES): NC(=O)CO [Glycolamide, Glycolamide (HO—CH2—CO—NH2), reference compound]

- EC50 [1, 12]: > 500 µM
Structure (SMILES): C[C@H](N)C(N)=O [L-Alaninamide]

- EC50 [1, 12]: > 500 µM
Structure (SMILES): C[C@H](N)C(=O)O [L-Alanine]

- EC50 [1, 12]: > 500 µM
Structure (SMILES): N=C(N)NCCC[C@H](N)C(N)=O [L-Argininamide]

- EC50 [2, 12]: > 1000 µM
- EC50 [1, 12]: > 500 µM
Structure (SMILES): NC(=O)C[C@H](N)C(N)=O [L-Asparaginamide, reference compound]

- EC50 [1, 12]: > 500 µM
Structure (SMILES): CC[C@H](C)[C@H](N)C(N)=O [L-Isoleucinamide]

- EC50 [1, 12]: > 500 µM
Structure (SMILES): CC(C)C[C@H](N)C(N)=O [L-Leucinamide]

- EC50 [1, 12]: > 500 µM
Structure (SMILES): CC(C)C[C@H](N)C(=O)O [L-Leucine]

- EC50 ([1]; read-out: EC50 against HIV-1(IIIB)): > 500 µM
Structure (SMILES): NCCCC[C@H](N)C(N)=O [L-Lysinamide]

- EC50 [1, 12]: > 500 µM
Structure (SMILES): CSCC[C@H](N)C(N)=O [L-Methioninamide]

- EC50 [1, 12]: > 500 µM
Structure (SMILES): NC(=O)[C@@H](N)Cc1ccccc1 [L-Phenylalaninamide]

- EC50 [1, 12]: > 1000 µM
Structure (SMILES): NC(=O)[C@@H]1CCCN1 [L-Prolinamide]

- EC50 [1, 12]: > 500 µM
Structure (SMILES): O=C(O)[C@@H]1CCCN1 [L-Proline]

- EC50 [1, 12]: > 1000 µM
Structure (SMILES): NC(=O)[C@@H](N)CO [L-Serinamide]

- EC50 [1, 12]: > 500 µM
Structure (SMILES): C[C@@H](O)[C@H](N)C(N)=O [L-Threoninamide]

- EC50 [1, 12]: > 200 µM
Structure (SMILES): NC(=O)[C@@H](N)Cc1c[nH]c2ccccc12 [L-Tryptophanamide]

- EC50 [1, 12]: > 500 µM
Structure (SMILES): NC(=O)[C@@H](N)Cc1ccc(O)cc1 [L-Tyrosinamide]

Structure (SMILES): CC(C)[C@H](N)C(=O)Nc1ccc2ccccc2c1 [L-Val β-naphthylamide, reference compound]
- EC50 [2, 12]: > 100 µM

- EC50 [1, 12]: > 500 µM
Structure (SMILES): CC(C)[C@H](N)C(N)=O [L-Valinamide]

Structure (SMILES): NC(=O)C(N)O (stereo not drawn) [Met-X, α-hydroxyglycinamide]
- Visible syncytia ([5]; 100 μM in boiled RPMI++): negative
- Visible syncytia ([5]; 100 μM in normal RPMI++ (10% FCS)): negative
- Visible syncytia ([5]; 500 μM in boiled RPMI++): negative
- Visible syncytia ([5]; 500 μM in normal RPMI++ (10% FCS)): negative
- inhibition of replication and/or propagation of HIV by visual inspection ([5]; boiled fetal calf serum): effectively inhibited
- reverse transcriptase activity in treated samples ([6]; 100 μM, fetal calf serum): no reverse transcriptase activity
- inhibition of HIV replication, reverse transcriptase (RT) activity [6]: inhibited the replication of HIV
- inhibition of HIV replication, reverse transcriptase (RT) activity ([6]; listed as Metabolite X): effectively inhibited replication HIV
- concentration at which inhibition of HIV replication is virtually complete ([6]; fetal bovine serum, 10 days): ≥ 15.6 µM
- OD1 ([7]; 50 μM, fetal calf serum): 1.105 and 1.895 and 2.351
- conc p24 ([7]; 50 μM, human serum): 457.33 ng/mL and 427.85 ng/mL and 261.05 ng/mL
- OD1 ([7]; 100 μM, fetal calf serum): 0.193 and 0.081 and 0.144
- inhibition of HIV replication, p24 ([7]; 100 μM, presence of fetal calf serum): effectively inhibited HIV replication
- inhibition of HIV, accumulation of p24, compared with reference ([7]; fetal calf serum): as effectively as GPG-NH2; also recorded: as effectively as G-NH2
- inhibition of HIV replication, accumulation of p24 ([7]; human serum): inhibited HIV replication in human serum
- inhibition of HIV replication, accumulation of p24 ([7]; human serum, listed as Metabolite X): effective inhibitors of HIV replication in human serum
- inhibition of replication of HIV ([2]; boiled fetal bovine serum or human serum samples, results the experiments will show): efficiently inhibits replication of HIV

- EC50 ([3]; Human immunodeficiency virus 1, IIIB, MT4, read-out: EC50 (MT-4) HIV-1 (IIIB)): > 500 µM
- EC50 ([4]; Human immunodeficiency virus 2, MT4, read-out: EC50 (MT-4) HIV-2 (ROD), Table 19): > 500 µM
- EC50 [1, 13]: > 500 µM
Structure (SMILES): NC(=O)C(N)=O [Oxamide, Oxamide (H2NCOCONH2), reference compound]

Structure (SMILES): NC(=O)CC[C@H](N)C(=O)N1CCC[C@H]1C(=O)NCC(N)=O [Q-PG-NH2, glutaminylprolylglycinamide] (H-Gln-Pro-Gly-NH2)
- EC50 [8]: 89 µM
- EC50 [9]: 265 µM
- EC50 [10]: 82 µM
- EC50 [2, 14]: 86 µM
- EC50 [11]: > 1500 µM

Structure (SMILES): CNCC(=O)N1CCC[C@H]1C(=O)NCC(N)=O [SAR-PG-NH2, sarcosinylprolylglycinamide] (H-[Sar]-Pro-Gly-NH2)
- EC50 [8]: 35 ± 9.8 µM
- EC50 [9]: 49 µM
- EC50 [10]: 56 µM
- EC50 [2, 14]: 31 ± 4.9 µM
- EC50 [11]: > 1500 µM

- EC50 [1, 12]: > 1000 µM
Structure (SMILES): CNCC(N)=O [Sarcosinamide]
